Experimental data taken from patent US20240228465A1, “SUBSTITUTED PYRIDINE N-OXIDE DERIVATIVES USEFUL AS A FACTOR XIA INHIBITORS” (Janssen Pharmaceutica NV, priority 2021, published 2024).
Where two headings read alike, the source gives them in different places.

Tests used:
Factor XIa = Factor XIa (Homo sapiens, UniProt P03951); assay: Factor XIa inhibition assay utilizing a fluorophore-quencher pair peptide substrate (FLINT); type: biochemical; details: 30 min preincubation
Source text: Biological Example 1: Factor XIa Inhibition Assay Utilizing a Fluorophore-Quencher Pair Peptide Substrate
A fluorescence intensity (FLINT) based assay was used to monitor inhibition of Factor XIa. The peptide substrate, 5Fam-KLTRAETV-K5Tamra (purchased from New England Peptide) was chosen based on the […]. Conversion of zymogen […]. The custom peptide used in this assay was based on the Arg146 cleavage site of FXI. The peptide substrate was designed with a fluorophore-quencher pair, where the fluorescence is quenched until FXIa cleaves the 8-mer peptide after the Arg residue. The substrate KM was fit to a substrate inhibition model whereby kcat=0.86 s^−1, KM=12.4 μM, Ki=61.6 μM with an enzymatic efficiency, and kcat/KM=69523 M^−1s^−1.
The Factor XIa FLINT assay was used with the following 5Fam-KLTRAETV-K5Tamra assay buffer: 50 mM Tris, pH 7.5, 100 mM NaCl, 5 mM CaCl2, 0.1 mg/mL BSA, 0.03% CHAPS. Assay buffer was prepared by mixing all ingredients fresh. 5Fam-KLTRAETV-K5Tamra peptide substrate was first prepared at 10 mM in 100% DMSO, then diluted to 3 mM in 100% DMSO. Assay buffer was then added directly to the 3 mM stock of substrate to prepare the 30 μM 2× working concentration (15 μM final concentration). The 2× Factor XIa stock solution was prepared by diluting 6.562 μM stock in 1× assay buffer for a […].
Test compound(s) were run in an 11-point, 3-fold serial dilution with a final top compound concentration of 100 nM. Final DMSO in assay was 2%. FXIa was preincubated with compound for 30-minutes and then substrate was added to initiate the reaction. The assay was run with either end point (EP) reads at 30 min or kinetic (KIN) reads at 5 min intervals over 30 minutes. The time course was linear using 100 μM FXIa greater than 30 minutes. More specifically, the assay was run as follows: • 100 nL of 0.01 mM test compound was dispensed into black 384-well non-binding Greiner BioOne 784900 plate for 0.1 μM final concentration; • 5 μL of 1× assay buffer was dispensed to column 24 (low control) and 5 μL 2× Factor XIa solution was dispensed to columns 1-23 (column 23 high control); • the plate was centrifuged with a “cover” plate at 500 rpm for 1 min • the plate was pre-incubated for 30 minutes at room temperature with plate covered; • 5 μL of 2× 5Fam-KLTRAETV-K5Tamra peptide substrate was dispensed into the entire plate, columns 1-24; • the plate was centrifuged with a “cover” plate at 500 rpm for 1 min; • the plate was read monitoring fluorescence intensity on the BMG PHERAStar at room temperature, using fluorescence module 485 nm/520 nm.
(§1) Percent inhibition (IC50) curves were generated per compound tested, and data was analyzed using a 4-parameter logistic fit using GeneData Screener. The relative fluorescence unit (RFU) values were normalized to percent inhibition using the following equation:
[formula] • where LC—low control=mean signal of no Factor XIa or 100% inhibition of Factor XIa; HC—high control=mean signal of Factor XIa+5Fam-KLTRAETV-K5Tamra peptide substrate with DMSO only.
(§2) An 11-point dose response curve for the test compound(s) was generated using GENDATA to determine IC50 value based on the following equation:
(§3) [formula] • where Y is the % inhibition in the presence of X inhibitor concentration, Top=high control=mean signal of Factor XIa+5Fam-KLTRAETV-K5Tamra peptide substrate with DMSO only; Bottom=low control—mean signal of no Factor XIa or 100% inhibition of Factor XIa; HillSlope—Hill coefficient; and IC50=concentration of compound with 50% inhibition in relation to top/high control.
Representative compounds of formula (I) of the present invention were tested according to the procedure described in Biological Example 1 and Biological Example 2 above, with results as listed in Table 3, below. […]

human plasma kallikrein = human plasma kallikrein (Homo sapiens, UniProt P03952); assay: Kallikrein inhibition assay utilizing a quenched AMC peptide substrate (FLINT); type: biochemical; details: 30 min preincubation
Chain of human plasma kallikrein (P03952 391-638 limits assumed): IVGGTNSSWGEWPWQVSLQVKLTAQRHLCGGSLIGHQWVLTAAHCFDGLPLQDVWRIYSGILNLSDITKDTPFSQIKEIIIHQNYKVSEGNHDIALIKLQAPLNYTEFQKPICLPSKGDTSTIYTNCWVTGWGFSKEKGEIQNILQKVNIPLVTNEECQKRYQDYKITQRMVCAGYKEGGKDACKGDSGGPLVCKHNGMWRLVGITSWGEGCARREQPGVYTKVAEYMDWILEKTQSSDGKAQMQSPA
Chain of human plasma kallikrein (P03952 20-390 partner limits assumed): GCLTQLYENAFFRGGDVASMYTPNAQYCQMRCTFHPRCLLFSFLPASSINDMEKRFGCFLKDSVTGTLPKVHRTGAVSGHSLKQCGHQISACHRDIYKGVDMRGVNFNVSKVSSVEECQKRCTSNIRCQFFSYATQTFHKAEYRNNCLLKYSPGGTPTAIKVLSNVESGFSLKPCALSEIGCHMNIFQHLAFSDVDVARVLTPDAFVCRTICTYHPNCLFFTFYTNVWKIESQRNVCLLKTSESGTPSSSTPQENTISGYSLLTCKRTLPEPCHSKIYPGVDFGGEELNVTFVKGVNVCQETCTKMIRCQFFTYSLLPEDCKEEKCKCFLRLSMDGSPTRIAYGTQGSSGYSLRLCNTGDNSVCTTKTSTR
Description: Biological Example 2: Kallikrein Inhibition Assay Utilizing a Quenched AMC Peptide Substrate
A fluorescence intensity (FLINT) based assay was used to monitor inhibition of human plasma kallikrein. The peptide substrate, Z-Gly-Pro-Arg-AMC (Purchased from Bachem; Catalog #I-1150) was chosen based on its relatively low KM for kallikrein which enables running the assay at lower substrate concentrations to control background fluorescence. The kinetic parameters for this substrate were determined by fitting titration data to the Michaelis-Menten equation yielding a KM=40 μm, kcat=0.76 s^−1, and kcat/KM=18932 M^−1s^−1.
The Kallikrein FLINT assay was used with the following Z-Gly-Pro-Arg-AMC assay buffer: 50 mM Tris, pH 7.5, 100 mM NaCl, 5 mM CaCl2, 0.1 mg/mL BSA, 0.03% CHAPS. Assay buffer was prepared by mixing all ingredients fresh. 2× Z-Gly-Pro-Arg-AMC peptide substrate was prepared by diluting 10 mM stock into 1× assay buffer for a 100 μM working concentration (50 μM final concentration). The 2× kallikrein stock solution was prepared by diluting 14.76 μM stock in 1× assay buffer for a 4 nM working stock solution (2 nM final concentration).
Test compound(s) were run in an 11-point, 3-fold serial dilution with a final top compound concentration of 1 μM. Final DMSO in assay was 2%. Plasma kallikrein was pre-incubated for 30-minute with compound and then 50 μM substrate was added to initiate the reaction. The assay was run with either end point (EP) reads at 30 min or kinetic (KIN) reads at 5 min intervals over 30 minutes. The time course was linear using 2 nM kallikrein greater than 30 minutes. More specifically, the assay was run as follows: • 100 nL of 0.1 mM test compound was dispensed into black 384-well non-binding Greiner BioOne 784900 plate for 1 μM final concentration; • 5 μL of 1× assay buffer was dispensed to columns 24 (low control) and 5 μL 2× human kallikrein enzyme solution was dispensed to columns 1-23 (column 23 high control); • the plate was centrifuged with a “cover” plate at 500 rpm for 1 min • the plate was pre-incubated for 30 minutes at room temperature with plate covered; • 5 μL of 2× Z-Gly-Pro-Arg-AMC peptide substrate was dispensed into the entire plate, columns 1-24; • the plate was centrifuged with a “cover” plate at 500 rpm for 1 min; • the plate was read monitoring fluorescence intensity on the BMG PHERAStar at room temperature, using fluorescence module 340 nm/440 nm.
as §1
% inhibition=((HC−LC)−(compound−LC)/(HC−LC))*100 • where LC—low control=mean signal of human kallikrein enzyme or 100% inhibition of human kallikrein enzyme; HC—high control=mean signal of Factor XIa+Z-Gly-Pro-Arg-AMC peptide substrate with DMSO only.
as §2
as §3, with “Y=Bottom+(Top−Bottom)/(1+10^((log IC50−X)*HillSlope))” for “[formula]”, “human kallikrein enzyme+Z-Gly-Pro-Arg-AMC” for “Factor XIa+5Fam-KLTRAETV-K5Tamra”, “human kallikrein enzyme” for “Factor XIa”, “human kallikrein enzyme;” for “Factor XIa;”
Representative compounds of formula (I) of the present invention were tested according to the procedure described in Biological Example 1 and Biological Example 2 above, with results as listed in Table 3, below. Results listed in the (ER) column were measured using endpoint reads where a single fluorescence reading was measured for each well at a 30 min timepoint. […]

[1] = kinetic reads at 5 min intervals over 30 min, read-out: FXIa (KIN) IC50
[2] = kinetic reads at 5 min intervals over 30 min, read-out: Kallikrein (KIN) IC50

Chain of Factor XIa (P03951 388-625 limits assumed): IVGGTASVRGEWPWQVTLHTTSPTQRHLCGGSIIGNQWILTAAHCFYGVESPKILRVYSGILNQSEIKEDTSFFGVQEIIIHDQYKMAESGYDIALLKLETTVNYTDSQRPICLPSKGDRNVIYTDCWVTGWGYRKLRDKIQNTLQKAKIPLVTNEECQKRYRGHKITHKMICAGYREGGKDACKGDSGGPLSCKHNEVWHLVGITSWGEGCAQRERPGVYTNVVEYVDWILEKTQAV
Chain of Factor XIa (P03951 19-387 partner limits assumed): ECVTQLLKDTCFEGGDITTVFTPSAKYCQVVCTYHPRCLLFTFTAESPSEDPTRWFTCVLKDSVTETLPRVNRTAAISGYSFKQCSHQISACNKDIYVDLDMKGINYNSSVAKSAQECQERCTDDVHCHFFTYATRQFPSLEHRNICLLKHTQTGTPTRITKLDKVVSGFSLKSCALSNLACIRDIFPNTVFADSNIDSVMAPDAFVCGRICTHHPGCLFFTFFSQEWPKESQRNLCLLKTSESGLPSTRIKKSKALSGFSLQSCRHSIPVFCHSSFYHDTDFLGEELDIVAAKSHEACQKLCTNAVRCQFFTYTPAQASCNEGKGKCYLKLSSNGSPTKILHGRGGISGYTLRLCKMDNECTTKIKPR

O=C(NC1CC1)c1ccc(-c2cn(C(CC3CC3)c3ccc(-c4cc(Cl)ccc4-n4cnnn4)c[n+]3[O-])nn2)cc1 (centres unmarked) [T2, 5-(5-Chloro-2-(1H-tetrazol-1-yl)phenyl)-2-(2-cyclopropyl-1-(4-(4-(cyclopropylcarbamoyl)phenyl)-1H-1,2,3-triazol-1-yl)ethyl)pyridine 1-oxide]
IC50 (Factor XIa; end point read at 30 min, read-out: FXIa (EP) IC50): 38.1 nM | IC50 (human plasma kallikrein; end point read at 30 min, read-out: Kallikrein (EP) IC50): 367 nM

Cn1ncnc1-c1cn(C(CCOC(F)F)c2ccc(-c3c(-n4cc(C(F)(F)F)nn4)ccc(Cl)c3F)c[n+]2[O-])cn1 (centres unmarked) [M9, 5-(3-Chloro-2-fluoro-6-(4-(trifluoromethyl)-1H-1,2,3-triazol-1-yl)phenyl)-2-(3-(difluoromethoxy)-1-(4-(1-methyl-1H-1,2,4-triazol-5-yl)-1H-imidazol-1-yl)propyl)pyridine 1-oxide]
IC50 (Factor XIa; [1]): 4.3 nM | IC50 (human plasma kallikrein; [2]): 543 nM

COC(=O)Nc1ccc(-c2cn(C(CC3CC3)c3ccc(-c4c(-n5cnnn5)ccc(Cl)c4F)c[n+]3[O-])nn2)cc1 (single isomer, unassigned) [T4, (S*)-5-(3-Chloro-2-fluoro-6-(1H-tetrazol-1-yl)phenyl)-2-(2-cyclopropyl-1-(4-(4-((methoxycarbonyl)amino)phenyl)-1H-1,2,3-triazol-1-yl)ethyl)pyridine 1-oxide]
IC50 (Factor XIa; [1]): 1 nM | IC50 (human plasma kallikrein; [2]): 14.9 nM

CCC(c1ccc(-c2c(-n3cnnn3)ccc(Cl)c2F)c[n+]1[O-])n1cnc(-c2ccc(NC(=O)OC)cc2)c1 (racemic) [M4, 5-(3-Chloro-2-fluoro-6-(1H-tetrazol-1-yl)phenyl)-2-(1-(4-(4-((methoxycarbonyl)amino)phenyl)-1H-imidazol-1-yl)propyl)pyridine 1-oxide]
IC50 (Factor XIa; [1]): 12.1 nM | IC50 (human plasma kallikrein; [2]): 202 nM
